Measured values as given in ChEMBL document CHEMBL1201862, “PubChem BioAssay data set” (2004).
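Assay format: 96-well plates, 48-hour exposure. GI50 marks 50% less growth.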 Activity calls are given as the source filed them. No stated cut-off is given here; in the data, active = GI50 up to about 1.1 µM and inactive = higher.

Key:
Assay in all cases: NCI tumour cell line growth inhibition, 48 h
KM12 = test system: KM12
OVCAR-5 = test system: OVCAR-5
SN12C = test system: SN12C
Hs-578T = test system: Hs-578T
A549 = test system: A549
SW-620 = test system: SW-620
DU-145 = test system: DU-145
HCT-15 = test system: HCT-15
ACHN = test system: ACHN
HCC 2998 = test system: HCC 2998
HOP-62 = test system: HOP-62
RXF 393 = test system: RXF 393
OVCAR-3 = test system: OVCAR-3
LOX IMVI = test system: LOX IMVI
UACC-257 = test system: UACC-257
NCI-H460 = test system: NCI-H460
OVCAR-8 = test system: OVCAR-8
SF-295 = test system: SF-295
Malme-3M = test system: Malme-3M
NCI-H226 = test system: NCI-H226

Measured: GI50

CC(=O)CCC(=O)C(=[N+]=[N-])S(=O)(=O)c1ccccc1
inactive: KM12 > 100 µM | OVCAR-5 > 100 µM | SN12C > 100 µM | Hs-578T > 100 µM | A549 > 100 µM | SW-620 > 100 µM | DU-145 > 100 µM | ACHN > 100 µM | HCC 2998 > 100 µM | HOP-62 > 100 µM | RXF 393 > 100 µM | OVCAR-3 > 100 µM | LOX IMVI > 100 µM | UACC-257 > 100 µM | NCI-H460 > 100 µM | OVCAR-8 > 100 µM | SF-295 > 100 µM | Malme-3M > 100 µM
> 100 µM: HCT-15

O=c1[nH]c(=O)n(C2OC(CO)C(O)C2O)c2nc(-c3ccc(-c4ccccc4)cc3)cnc12 (centres undefined)
> 100 µM: HCT-15
inactive: KM12 > 100 µM | OVCAR-5 > 100 µM | SN12C > 100 µM | Hs-578T > 100 µM | A549 > 100 µM | SW-620 > 100 µM | DU-145 > 100 µM | ACHN > 100 µM | HCC 2998 > 100 µM | HOP-62 > 100 µM | RXF 393 > 100 µM | LOX IMVI > 100 µM | UACC-257 > 100 µM | NCI-H460 > 100 µM | NCI-H226 > 100 µM | OVCAR-8 > 100 µM | SF-295 > 100 µM | Malme-3M > 100 µM

Cn1c2ccccc2c2c(=O)[nH]c(=O)[nH]c21
inactive: KM12 > 100 µM | OVCAR-5 > 100 µM | SN12C > 100 µM | Hs-578T > 100 µM | A549 > 100 µM | SW-620 > 100 µM | DU-145 > 100 µM | ACHN > 100 µM | HCC 2998 > 100 µM | HOP-62 > 100 µM | RXF 393 > 100 µM | OVCAR-3 > 100 µM | LOX IMVI > 100 µM | UACC-257 > 100 µM | NCI-H226 > 100 µM | OVCAR-8 > 100 µM | SF-295 > 100 µM | Malme-3M > 100 µM
> 100 µM: HCT-15

COc1cc(O)c2c(=O)c(OC)c(-c3ccc4c(c3)OCO4)oc2c1
> 100 µM: HCT-15
inactive: KM12 > 100 µM | OVCAR-5 > 100 µM | SN12C > 100 µM | Hs-578T 21.6 µM | A549 > 28.8 µM | SW-620 > 100 µM | DU-145 > 100 µM | ACHN 17.5 µM | HCC 2998 > 100 µM | HOP-62 7.76 µM | RXF 393 11.2 µM | LOX IMVI > 23.2 µM | UACC-257 > 100 µM | NCI-H460 6.01 µM | NCI-H226 > 57.9 µM | OVCAR-8 6.15 µM | SF-295 14.4 µM | Malme-3M > 100 µM

CCOC(=O)C(NC(=O)c1cccc(Cl)c1)(N1CCN(c2cc3c(cc2F)c(=O)c(C(=O)O)cn3C2CC2)CC1)C(F)(F)F (centres undefined)
inactive: KM12 11.5 µM | OVCAR-5 16.7 µM | SN12C 26.9 µM | Hs-578T 20.7 µM | A549 15.2 µM | SW-620 12.2 µM | DU-145 25.4 µM | ACHN 15.5 µM | HCC 2998 19.4 µM | HOP-62 22.2 µM | RXF 393 17 µM | OVCAR-3 10.7 µM | NCI-H460 16.7 µM | NCI-H226 19.5 µM | OVCAR-8 17.5 µM | SF-295 21.6 µM | Malme-3M 18 µM

COc1c(-c2ccc3c(c2)OCO3)oc2cc(O)cc(O)c2c1=O
inactive: KM12 64.7 µM | OVCAR-5 > 100 µM | SN12C 51.1 µM | Hs-578T 14.3 µM | A549 47.3 µM | DU-145 59.3 µM | ACHN 27 µM | HCC 2998 78.9 µM | HOP-62 18.6 µM | RXF 393 14.9 µM | LOX IMVI 45.4 µM | UACC-257 > 100 µM | NCI-H460 64 µM | NCI-H226 > 100 µM | OVCAR-8 45.4 µM | SF-295 34.4 µM
55.6 µM: HCT-15

CC(=O)OCC1OC(n2cnc(C(N)=S)c2N)C(OC(C)=O)C1OC(C)=O (centres undefined)
> 100 µM: HCT-15
inactive: KM12 > 100 µM | OVCAR-5 > 100 µM | SN12C > 100 µM | Hs-578T > 100 µM | A549 > 100 µM | SW-620 > 100 µM | DU-145 > 100 µM | ACHN > 100 µM | HCC 2998 > 100 µM | HOP-62 > 100 µM | OVCAR-3 > 100 µM | LOX IMVI > 100 µM | UACC-257 > 100 µM | NCI-H460 > 100 µM | NCI-H226 > 100 µM | OVCAR-8 > 100 µM | SF-295 > 100 µM | Malme-3M > 100 µM

COc1cccc(C2SCC(=O)N2c2ccc(-c3ccc(-n4c(-c5ccccc5)nc5ccccc5c4=O)cc3)cc2)c1OC (centres undefined)
inactive: KM12 50.4 µM | OVCAR-5 > 100 µM | SN12C > 100 µM | Hs-578T 58.9 µM | A549 83.8 µM | SW-620 > 10 µM | DU-145 > 100 µM | ACHN > 100 µM | HCC 2998 > 100 µM | HOP-62 > 100 µM | OVCAR-3 > 100 µM | LOX IMVI 50.7 µM | UACC-257 > 100 µM | NCI-H460 > 100 µM | NCI-H226 74.1 µM | OVCAR-8 > 100 µM | SF-295 > 100 µM | Malme-3M > 100 µM
52.7 µM: HCT-15

Cn1nc2ccc([N+](=O)[O-])cc2[n+]1[O-]
inactive: KM12 > 100 µM | OVCAR-5 > 100 µM | SN12C 22.4 µM | Hs-578T > 100 µM | A549 > 100 µM | DU-145 > 100 µM | ACHN > 100 µM | HCC 2998 > 100 µM | HOP-62 > 100 µM | RXF 393 > 100 µM | OVCAR-3 > 100 µM | UACC-257 > 100 µM | NCI-H460 > 100 µM | NCI-H226 > 100 µM | OVCAR-8 > 100 µM | SF-295 > 100 µM | Malme-3M > 100 µM
> 100 µM: HCT-15

CC(=O)Oc1ccc(/C=C/C(=O)OCCCOC(=O)/C=C/c2ccc(OC(C)=O)c(OC(C)=O)c2)cc1OC(C)=O
inactive: KM12 > 100 µM | OVCAR-5 > 100 µM | SN12C > 100 µM | Hs-578T > 100 µM | A549 > 100 µM | SW-620 > 100 µM | DU-145 > 100 µM | ACHN > 100 µM | HCC 2998 > 100 µM | HOP-62 51.2 µM | RXF 393 > 100 µM | OVCAR-3 > 100 µM | LOX IMVI > 100 µM | UACC-257 > 100 µM | NCI-H460 > 100 µM | OVCAR-8 > 100 µM | SF-295 77.4 µM | Malme-3M > 100 µM
> 100 µM: HCT-15

Clc1ccccc1-c1nc(-c2ccncc2)no1 [PIFEXOLE]
44.7 µM: HCT-15
inactive: KM12 > 100 µM | OVCAR-5 > 100 µM | SN12C 38.2 µM | Hs-578T 36.6 µM | A549 69 µM | SW-620 52.7 µM | DU-145 87.9 µM | ACHN 88.1 µM | HCC 2998 25.1 µM | HOP-62 > 100 µM | RXF 393 29.3 µM | OVCAR-3 44.9 µM | UACC-257 37.8 µM | NCI-H460 58.7 µM | NCI-H226 98.9 µM | OVCAR-8 90.6 µM | SF-295 36.5 µM | Malme-3M 75.3 µM
